The values that follow come from patent publication US20220177490A1, “COMPOUNDS HAVING BOTH EFFECTS OF BET BROMODOMAIN PROTEIN INHIBITION AND PD-L1 GENE REGULATION” (priority 2019, published 2022).

pIC50: −log10 of the molar value. Read-outs that look alike come from different tables or passages of the source.

One data set addresses T1, BRD4-2 (BRD4 BD2) (Homo sapiens, UniProt O60885).
T1 construct: BRD4 (BD1, BD2)
In words: AlphaScreen binding assay of BRD4 biochemical activity (BD2). As to conditions: BD2, second value of cell; 10 concentrations, single well, initial 10 μM, 3-fold dilution. Here is the method: (§1) Test 1: IC50 characterization of the compounds at 10 concentrations.
(§2) The compounds were evaluated for IC50 against two BRD (BRD4-1, BRD4-2) at 10 concentrations, single well.
(§3) Buffer composition for BRD: 50 mM HEPES-HCl, pH7.5, 100 mM NaCl, 0.1% BSA, 0.05% CHAPS, and 1% DMSO.
(§4) Assay: AlphaScreen binding assay (Ex/Em=680/520-620 nm)
(§5) 2.1 4×BRD was added into wells of a reaction plate, except for control wells without BRD, in which BRD was replaced with a buffer.
(§6) 2.2 A solution of the compounds in 100% DMSO was added to the BRD mixture using Acoustic Technology (Echo550, nanoliter level). The mixture was centrifuged, shaken gently at room temperature, and pre-incubated for 30 minutes.
(§7) 2.3 4× ligand was added, and the mixture was centrifuged and shaken.
(§8) 2.4 The mixture was shaken gently and incubated at room temperature for 30 minutes.
(§9) 2.5 4× donor beads were added in the dark, and the mixture was centrifuged and shaken.
(§10) 2.6 4× acceptor beads were added in the dark, and the mixture was centrifuged and shaken gently in the dark for 60 minutes.
(§11) 2.7 The Alpha assay was carried out using Enspire (Ex/Em=680/520-620 nm)
(§12) The four-parameter fitting was performed by GraphPadPrism4 software using the following formula to obtain an IC50 fitting curve:
(§13) Y=minimum+(maximum−minimum)/(1+10^((Log IC50−X)*HillSplope))
(§14) Prism settings: 4-parameter dose-response curve (with variable slope), constrained; minimum=0, maximum=less than 120
A general note: Bead proximity is the source of the signal in Alpha formats.

Another data set concerns the target T2, BRD4-1 (BRD4 BD1) (Homo sapiens, UniProt O60885).
T2 construct: BRD4 (BD1, BD2)
The data set can be described thus: AlphaScreen binding assay of BRD4 biochemical activity (BD1). As to conditions: BD1, first value of cell; 10 concentrations, single well, initial 10 μM, 3-fold dilution. As for the experimental part:
as §1, §2, §3, §4, §5, §6, §7, §8, §9, §10, §11, §12, §13, §14

Data set [1] deals with PAN02 mouse pancreatic cancer cell line. The data set can be described thus: In vivo efficacy in PAN02 tumor model. The settings on record: C57BL/6 mice, 30 mg/kg intragastrically, day 32. Here is the method: The anti-tumor effect of the test compound was investigated on an in vivo tumor model of mouse pancreatic cancer PAN02.
Female C57BL/6 mice were subcutaneously inoculated with PAN02 mouse pancreatic cancer cell line, grouped according to body weight and tumor volume on the 8th day after inoculation, and administered as described below.
(§15) Group 1 (control group): Vehicle control was administered intragastrically at a dose of 0.1 mL/10 g body weight twice a day.
(§16) Group 2: Compound 4 dissolved in (5% DMSO+40% PEG 400+10% Solutol+45% DDH2O) was administered intragastrically at a dose of 30 mg/kg body weight.
During the assay, the body weight and tumor volume of mice were measured three times a week, and the tumor volume was calculated according to the formula of length×width^2/2. The tumor proliferation rate and tumor inhibition rate were calculated according to the formula: tumor proliferation rate=tumor volume of treatment group/tumor volume of control group×100%; tumor inhibition rate=(tumor volume of control group−tumor volume of treatment group)/tumor volume of control group.
(§17) Student's t-test was used for statistical analysis between groups, and p<0.05 indicated significant difference.

Data set [2] in a line: Pharmacokinetic study in male CD-1 mice, LC/MS/MS of plasma. As to conditions: mouse; for Vd: read-out: Apparent volume of distribution Vdss; for AUC(0-inf): read-out: Area under curve (0-inf) AUC0-inf; for AUC(0-t): read-out: Area under curve (0-t) AUC0-last; for clearance: read-out: Clearance rate Cl; for half-life: read-out: Half life period T½ (converted); for Cmax: read-out: Drug concentration in blood Cmax; for Tmax: read-out: Peak arrival time Tmax; for bioavailability: read-out: bioavailability F. The data set is classed as in vivo. As for the experimental part: 1.1 Male CD-1 mice were used as test animals, and the LC/MS/MS method was used to determine the drug concentration in plasma of mice at different times after intravenous and intragastric administration of the test compounds. The pharmacokinetic behavior of the compounds of the present disclosure in mice was studied, and the pharmacokinetic characteristics of the compounds of the present disclosure were evaluated.
2.2 Assay animals: Eight healthy adult male CD-1 mice, which were divided into four groups (two for each group) according to the principle of similar body weight. The animals were purchased from Shanghai Sippe-Bk Lab Animal Co., Ltd., with animal production license No. of SCXK (Shanghai) 2018-0006.
A proper amount of samples were weighed, to which a solvent was added. The mixture was stirred with ultrasound to a clear state for intravenous administration.
A proper amount of samples were weighed, to which a solvent was added. The mixture was stirred with ultrasound to a clear state for intragastric administration.
Eight male CD-1 mice were divided into four groups. After one-night fasting, two groups were administered intravenously, and the remaining two groups were administered intragastrically.
After intravenous administration of the test compounds to male CD-1 mice, […] of blood was collected at 0.0833, 0.25, 0.5, 1, 2, 4, 8, and 24 hours, and placed in commercial tubes containing EDTA-K2. After intragastric administration of the test compounds, […] of blood was collected at 0.25, 0.5, 1, 2, 4, 6, 8, and 24 hours, and placed in commercial tubes containing EDTA-K2. The tubes were centrifuged at 3000 g for 15 minutes to separate plasma and stored at −60° C. Animals were fed 2 hours after the administration.
The LC/MS/MS method was used to determine the content of the test compounds in the plasma of mice after intravenous and intragastric administration. The linear range of the method was 2.00-6000 nmol/L; The plasma samples were analyzed after protein precipitation with acetonitrile.

Data set [3] deals with Mouse colon cancer MC38 cells. In words: In vivo efficacy in transplanted tumor model of MC38 mouse colon cancer cells. As to conditions: C57BL/6 mice, 18 days of administration. As for the experimental part: Mouse colon cancer MC38 cells (Art. No. HYC3401) were cultured in vitro in single layer under the conditions of DMEM containing 10% fetal bovine serum and 37° C. 5% CO2 incubator. Trypsin-EDTA was used for routine digestion and passage. When the cells were in exponential growth phase and the saturation was 80%-90%, the cells were collected and counted.
Cells were re-suspended in DPBS at a density of […]. 0.1 mL DPBS (containing 2×10^5 MC38 cells) was subcutaneously inoculated into the right back of each mouse. When average tumor volume reached ˜63 mm^3, mice were randomly grouped and administered according to tumor volume.
Tumor diameter was measured with vernier caliper three times a week. The calculation formula of tumor volume was as follows: V=0.5×a×b^2, wherein a and b indicated the long and short diameters of a tumor, respectively.
The anti-tumor effect of the compounds was evaluated using TGI (%) or relative tumor proliferation rate T/C (%). Relative tumor proliferation rate T/C (%)=TRTV;/CRTV×100 (TRTV: average RTV for treatment group; CRTV: average RTV for negative control group). According to the results of tumor measurement, relative tumor volume (RTV) was calculated using the formula: RTV=Vt/V0, wherein V0 is the tumor volume measured when grouped and administered (i.e., D0), Vt is the tumor volume at a certain measurement, and the data of TRTV and CRTV on the same day were used.
TGI (%) reflects the rate of tumor growth inhibition. TGI (%)=[(1−(Average tumor volume at the end of administration for a treatment group−Average tumor volume at the beginning of administration for the treatment group))/(Average tumor volume at the end of treatment for a vehicle control group-Average tumor volume at the beginning of treatment for the vehicle control group)]×100.
Statistical analysis was performed using SPSS software based on the relative tumor volume and tumor weight at the end of the test. T-test was used for comparison between two groups and one-way ANOVA was used for comparison among three or more groups. If variance was not neat (significant difference was found in F value), Games-Howell method was used for test. P<0.05 was considered a significant difference.

In data set [4] the test system is EMT-6 mouse breast cancer cell line. In words: Anti-tumor activity in EMT-6 in vivo tumor model. As to conditions: EMT-6 model, BALB/C mice, 30 mg/kg intragastrically. As for the experimental part:
The anti-tumor effect of the test compound was investigated on an in vivo tumor model of mouse breast cancer EMT-6.
Female BALB/C mice were subcutaneously inoculated with an EMT-6 mouse breast cancer cell line, grouped according to body weight and tumor volume on the 8th day after inoculation, and administered as described below.
as §15, §16
During the assay, the body weight and tumor volume of mice were measured three times a week, and the tumor volume was calculated according to the formula of length×width^2/2. The tumor proliferation rate and tumor inhibition rate were calculated according to the formula: tumor proliferation rate=tumor volume of treatment group/tumor volume of control group×100%; tumor inhibition rate=(tumor volume of control group-tumor volume of treatment group)/tumor volume of control group.
as §17

Turning to `Cc1sc2c(c1C)C(c1ccc(Cl)cc1)=N[C@@H](CC(=O)Nc1ccc3c(c1)CO/C3=N\O)c1nnc(C)n1-2` [Compound 1], the figures for the pIC50 on BRD4-2 (BRD4 BD2) and at BRD4-1 (BRD4 BD1) were 8.13 and 7.31, respectively.

Turning to `Cc1sc2c(c1C)C(c1ccc(Cl)cc1)=N[C@@H](CC(=O)Nc1ccc3c(c1)CO/C3=N\C#N)c1nnc(C)n1-2` [Compound 2], the negative logarithm of the IC50 (pIC50) (in general, the IC50 on a negative log10 scale, so that one unit is a factor of ten) on BRD4-2 (BRD4 BD2) is 8.21; on BRD4-1 (BRD4 BD1), 7.32.

Turning to `Cc1sc2c(c1C)C(c1ccc(Cl)cc1)=N[C@@H](CC(=O)Nc1ccc3c(c1)CC1CON=C31)c1nnc(C)n1-2` (some centres unmarked) [Compound 3], the pIC50 is 8.35 on BRD4-2 (BRD4 BD2) and 7.57 at BRD4-1 (BRD4 BD1).

In the case of `CO/N=C1\OCc2cc(NC(=O)C[C@@H]3N=C(c4ccc(Cl)cc4)c4c(sc(C)c4C)-n4c(C)nnc43)ccc21` [Compound 4], the pIC50 at BRD4-2 (BRD4 BD2) is 8.18. In data set [1], this molecule yielded a tumor proliferation rate of 37.61%. In data set [2] (intravenous, 1 mg/kg), the Vd was found to be 1.84 L/kg; the AUC(0-inf) was 2.91 µM·h; the AUC(0-t) was 2.71 µM·h; the clearance (usually a measure of how efficiently the substance is removed, as volume per time) amounted to 10.2 mL/min/kg. Besides, the half-life – broadly, the time in which the quantity being followed falls by half – in data set [2] (intravenous, 1 mg/kg) is 2.05 h. Besides, in data set [2] (po, intragastric, 2 mg/kg), the AUC(0-t) turned out to be 1.61 µM·h; the Cmax came out at 262 nM; the Tmax (usually the time at which the peak concentration occurs) worked out at 4 h; the bioavailability – broadly, dose-corrected exposure relative to a reference, in per cent – worked out at 29.6%. The tumour growth inhibition (TGI) (as a rule, how far tumour growth fell short of that in controls) in data set [3] (20 mpk p.o. BID) is 85.90%. The same molecule showed an inhibition of tumour growth (TGI) in data set [3] (50 mpk p.o. BID) of 97.66%. Moreover, at BRD4-1 (BRD4 BD1), the negative-log IC50 (pIC50) was 7.55. The tumor proliferation rate in data set [4] (Day 19) was determined as 23.92%. The molecule also had a tumor proliferation rate in data set [4] (end of the assay) of 36.79%.

Regarding `Cc1sc2c(c1C)C(c1ccc(Cl)cc1)=N[C@@H](CC(=O)Nc1ccc3c(c1)CO/C3=N\C1COC1)c1nnc(C)n1-2` [Compound 7], the values for the pIC50 at BRD4-2 (BRD4 BD2) and on BRD4-1 (BRD4 BD1) were 8.22 and 7.54, respectively.

Regarding `Cc1sc2c(c1C)C(c1ccc(Cl)cc1)=N[C@@H](CC(=O)Nc1ccc3c(c1)CO/C3=N\OC(C)C)c1nnc(C)n1-2` [Compound 8], the negative-log IC50 (pIC50) at BRD4-2 (BRD4 BD2) was 7.82; at BRD4-1 (BRD4 BD1), 7.07.

Consider `CCO/N=C1\OCc2cc(NC(=O)C[C@@H]3N=C(c4ccc(Cl)cc4)c4c(sc(C)c4C)-n4c(C)nnc43)ccc21` [Compound 9], for which the values for the pIC50 at BRD4-2 (BRD4 BD2) and at BRD4-1 (BRD4 BD1) were 8.15 and 7.36, respectively.

In the case of `COCCO/N=C1\OCc2cc(NC(=O)C[C@@H]3N=C(c4ccc(Cl)cc4)c4c(sc(C)c4C)-n4c(C)nnc43)ccc21` [Compound 10], the pIC50 was 8.45 at BRD4-2 (BRD4 BD2) and 7.57 at BRD4-1 (BRD4 BD1).

As for `Cc1sc2c(c1C)C(c1ccc(Cl)cc1)=N[C@@H](CC(=O)Nc1ccc3c(c1)CO/C3=N\OC(F)F)c1nnc(C)n1-2` [Compound 11], the pIC50 on BRD4-2 (BRD4 BD2) was 8.41. In addition, in data set [2] (intravenous, 1 mg/kg), the Vd was 2.21 L/kg, the AUC(0-inf) is 2.44 µM·h, the AUC(0-t) was found to be 2.26 µM·h and the clearance was 11.5 mL/min/kg. Besides, in data set [2] (intravenous, 1 mg/kg), the half-life was 2.16 h. Further, in data set [2] (po, intragastric, 2 mg/kg), the AUC(0-t) is 1.31 µM·h, the Cmax turned out to be 115 nM, the Tmax came out at 7 h and the bioavailability worked out at 29%. In data set [3] (20 mpk p.o. BID), this molecule yielded an inhibition of tumour growth (TGI) of 54.16%. The same molecule displayed a TGI in data set [3] (50 mpk p.o. BID) of 84.11%. The pIC50 at BRD4-1 (BRD4 BD1) is 7.14.

Turning to `Cc1sc2c(c1C)C(c1ccc(Cl)cc1)=N[C@@H](CC(=O)Nc1ccc3c(c1)Cn1ccnc1-3)c1nnc(C)n1-2` [Compound 12], the pIC50 on BRD4-2 (BRD4 BD2) was 8.70; on BRD4-1 (BRD4 BD1), 7.74.

On to `Cc1sc2c(c1C)C(c1ccc(Cl)cc1)=N[C@@H](CC(=O)Nc1ccc3c(c1)CO/C3=N\N(C)C)c1nnc(C)n1-2` [Compound 13], for which the values for the pIC50 on BRD4-2 (BRD4 BD2) and on BRD4-1 (BRD4 BD1) were 8.65 and 7.88, respectively.
